Laboratory results as given in the NIST ThermoML archive (doi:10.1016/j.jct.2019.03.022).

Details: Liquid, Frequency=5 MHz, Pulse-echo method

O [water]
Details	speed of sound [m/s]
306.13 K, 1030 kPa	1517.3
306.14 K, 4950 kPa	1524
306.15 K, 19980 kPa	1549.5
306.15 K, 59750 kPa	1616.5
306.16 K, 29980 kPa	1566.5
306.16 K, 39950 kPa	1583.3
306.16 K, 49950 kPa	1600.1
357.97 K, 20280 kPa	1593.1
357.99 K, 400 kPa	1553.7
358 K, 30380 kPa	1612.5
358 K, 40230 kPa	1630.9
358.01 K, 50080 kPa	1649
358.03 K, 59980 kPa	1666.8
420.93 K, 1180 kPa	1471.5
421.06 K, 20130 kPa	1520.6
421.12 K, 40030 kPa	1568.6
421.2 K, 59900 kPa	1613.1

Cc1ccccc1 [toluene]
Details	speed of sound [m/s]
323.29 K, 10200 kPa	1253.2
323.32 K, 20480 kPa	1305.4
323.32 K, 20600 kPa	1305.9
323.34 K, 31540 kPa	1356.7
323.37 K, 44870 kPa	1413.5
323.38 K, 60790 kPa	1475.5
323.39 K, 60820 kPa	1475.5
373.82 K, 7570 kPa	1046.5
373.83 K, 2170 kPa	1007.9
373.83 K, 21270 kPa	1132.5
373.85 K, 35520 kPa	1209.3
373.87 K, 64470 kPa	1340.7
373.9 K, 50350 kPa	1280
422.93 K, 6580 kPa	863.73
422.98 K, 20740 kPa	974.49
423.01 K, 36450 kPa	1073.4
423.04 K, 56200 kPa	1176.9

Cc1ccc(C)cc1 [1,4-dimethylbenzene]
Details	speed of sound [m/s]
305.93 K, 3690 kPa	1296.5
305.97 K, 40270 kPa	1464.5
305.98 K, 5250 kPa	1304.4
305.98 K, 45030 kPa	1483.5
305.98 K, 50870 kPa	1506
305.99 K, 1000 kPa	1281.8
305.99 K, 35160 kPa	1443.6
306 K, 4900 kPa	1302.5
306 K, 13840 kPa	1347.7
306 K, 30490 kPa	1423.8
306.02 K, 2050 kPa	1287.2
306.03 K, 9400 kPa	1325.6
306.05 K, 6960 kPa	1312.9
306.06 K, 19900 kPa	1376.2
306.07 K, 2050 kPa	1287.1
306.07 K, 16500 kPa	1360.1
306.07 K, 24630 kPa	1397.8
306.1 K, 29650 kPa	1419.7
306.14 K, 26930 kPa	1407.8
306.18 K, 28370 kPa	1413.9
323.47 K, 41260 kPa	1410.2
323.47 K, 49810 kPa	1445.3
323.47 K, 59650 kPa	1483.5
323.48 K, 34540 kPa	1381.1
323.48 K, 54770 kPa	1464.8
323.48 K, 55430 kPa	1467.4
323.49 K, 46870 kPa	1433.4
323.51 K, 49380 kPa	1443.5
323.51 K, 65910 kPa	1506.7
323.52 K, 30290 kPa	1361.8
323.53 K, 11470 kPa	1269.8
323.54 K, 1060 kPa	1211.5
323.54 K, 6060 kPa	1240.3
323.54 K, 44230 kPa	1422.4
323.54 K, 45010 kPa	1425.6
323.55 K, 18570 kPa	1306.1
323.56 K, 210 kPa	1206.4
323.57 K, 490 kPa	1208.1
323.57 K, 2600 kPa	1220.4
323.57 K, 10070 kPa	1262.1
323.57 K, 20900 kPa	1317.5
323.57 K, 39580 kPa	1402.7
323.57 K, 44830 kPa	1424.7
323.58 K, 5070 kPa	1234.5
323.58 K, 6090 kPa	1240.3
323.58 K, 11110 kPa	1267.7
323.58 K, 34830 kPa	1382
323.59 K, 7490 kPa	1248
323.59 K, 17890 kPa	1302.5
323.59 K, 25130 kPa	1337.7
323.59 K, 30210 kPa	1361.3
323.6 K, 15130 kPa	1288.6
335.95 K, 55000 kPa	1427.5
335.95 K, 65380 kPa	1467.9
335.96 K, 61040 kPa	1451.3
335.97 K, 50590 kPa	1409.6
335.98 K, 1230 kPa	1164
335.98 K, 2630 kPa	1172.6
335.98 K, 5600 kPa	1190.4
335.98 K, 45230 kPa	1387.1
335.99 K, 280 kPa	1158
335.99 K, 570 kPa	1159.8
335.99 K, 10300 kPa	1217.5
335.99 K, 20370 kPa	1271.4
336 K, 10270 kPa	1217.2
336 K, 24830 kPa	1293.8
336 K, 30890 kPa	1323
336 K, 34840 kPa	1341.2
336.01 K, 14980 kPa	1243.1
336.01 K, 20750 kPa	1273.3
336.02 K, 40670 kPa	1367.2
336.03 K, 41380 kPa	1370.3
336.05 K, 41270 kPa	1369.8
336.06 K, 31080 kPa	1323.6
348.25 K, 40 kPa	1108.8
348.27 K, 2120 kPa	1122.5
348.28 K, 4090 kPa	1135.2
348.29 K, 2590 kPa	1125.5
348.3 K, 2110 kPa	1122.3
348.32 K, 1270 kPa	1116.8
348.32 K, 8600 kPa	1162.9
348.32 K, 8900 kPa	1164.7
348.35 K, 10880 kPa	1176.3
348.36 K, 15220 kPa	1201.1
348.36 K, 20050 kPa	1227.6
348.37 K, 14620 kPa	1197.7
348.37 K, 60580 kPa	1413.4
348.39 K, 59820 kPa	1410.3
348.39 K, 64180 kPa	1427.6
348.4 K, 64670 kPa	1429.6
348.41 K, 59890 kPa	1410.6
348.42 K, 45170 kPa	1348.7
348.42 K, 49930 kPa	1369.4
348.42 K, 54750 kPa	1389.6
348.43 K, 29340 kPa	1275
348.43 K, 33900 kPa	1297.2
348.43 K, 39830 kPa	1324.8
348.45 K, 24930 kPa	1252.9
355.89 K, 12280 kPa	1158.2
355.92 K, 15640 kPa	1177.7
355.94 K, 920 kPa	1085.7
355.94 K, 20950 kPa	1207.3
355.95 K, 490 kPa	1082.6
355.95 K, 2620 kPa	1097
355.95 K, 25050 kPa	1229.2
355.95 K, 31130 kPa	1260.2
355.96 K, 10930 kPa	1149.9
355.98 K, 270 kPa	1081
355.98 K, 5370 kPa	1115.1
355.98 K, 65160 kPa	1410.3
356 K, 59390 kPa	1387.1
356.02 K, 41360 kPa	1308.9
356.02 K, 45060 kPa	1325.7
356.04 K, 54960 kPa	1368.5
356.05 K, 34600 kPa	1276.9
356.08 K, 50520 kPa	1349.5
373.53 K, 2520 kPa	1031.7
373.53 K, 5450 kPa	1052.5
373.54 K, 2530 kPa	1031.7
373.55 K, 950 kPa	1020.1
373.57 K, 44340 kPa	1271.8
373.58 K, 570 kPa	1017.1
373.58 K, 49640 kPa	1296.2
373.59 K, 240 kPa	1014.6
373.6 K, 10260 kPa	1084.6
373.6 K, 19750 kPa	1143.4
373.6 K, 29800 kPa	1199.1
373.6 K, 29850 kPa	1199.3
373.6 K, 35000 kPa	1226.1
373.61 K, 14920 kPa	1114.2
373.61 K, 59070 kPa	1337.5
373.62 K, 20290 kPa	1146.4
373.62 K, 39790 kPa	1249.8
373.62 K, 40800 kPa	1254.9
373.62 K, 58970 kPa	1337.1
373.63 K, 24920 kPa	1172.7
373.63 K, 54980 kPa	1319.8
373.64 K, 64880 kPa	1361.7
398.19 K, 37260 kPa	1168.3
398.2 K, 220 kPa	923.76
398.2 K, 29920 kPa	1127.9
398.2 K, 37270 kPa	1168.3
398.2 K, 40070 kPa	1182.9
398.2 K, 54810 kPa	1254.7
398.2 K, 60130 kPa	1278.8
398.21 K, 500 kPa	926.17
398.21 K, 34890 kPa	1155.4
398.21 K, 44950 kPa	1207.5
398.21 K, 64730 kPa	1299
398.22 K, 1040 kPa	930.76
398.22 K, 20010 kPa	1068.5
398.22 K, 24890 kPa	1098.6
398.23 K, 50040 kPa	1232.3
398.24 K, 5190 kPa	964.55
398.24 K, 15110 kPa	1036.5
398.24 K, 31220 kPa	1135.2
398.25 K, 2490 kPa	942.77
398.25 K, 10300 kPa	1002.9
398.25 K, 19720 kPa	1066.6
398.25 K, 31220 kPa	1135.2
398.26 K, 12650 kPa	1019.5
422.57 K, 5690 kPa	886.27
422.65 K, 2630 kPa	858.44
422.7 K, 14830 kPa	959.38
422.72 K, 550 kPa	838.3
422.72 K, 50170 kPa	1171.8
422.73 K, 190 kPa	834.7
422.73 K, 28590 kPa	1052.1
422.73 K, 54780 kPa	1194.6
422.74 K, 1230 kPa	844.88
422.74 K, 9190 kPa	915.48
422.74 K, 44830 kPa	1144.4
422.75 K, 780 kPa	840.37
422.75 K, 10020 kPa	922.14
422.75 K, 19940 kPa	995.75
422.75 K, 24810 kPa	1028.2
422.75 K, 29890 kPa	1060
422.75 K, 64580 kPa	1240.2
422.76 K, 59900 kPa	1218.7
422.77 K, 34850 kPa	1089.3
422.77 K, 40720 kPa	1122.3
446.94 K, 5130 kPa	800.91
446.99 K, 10180 kPa	848.37
446.99 K, 14830 kPa	887.97
447 K, 19890 kPa	927.32
447.01 K, 7300 kPa	821.88
447.02 K, 1020 kPa	756.94
447.02 K, 24900 kPa	963.22
447.03 K, 22500 kPa	946.32
447.07 K, 300 kPa	748.43
447.07 K, 580 kPa	751.73
447.08 K, 49880 kPa	1113.3
447.08 K, 64750 kPa	1187.3
447.09 K, 30510 kPa	1000.7
447.11 K, 54450 kPa	1137
447.12 K, 40150 kPa	1059.5
447.13 K, 35270 kPa	1030.4
447.13 K, 45010 kPa	1086.9
447.13 K, 59760 kPa	1163.3
